Read-outs that look alike come from different tables or passages of the source.
How the values were obtained:
Type in all cases: binding
[1] = target: T1, DNA-dependent protein kinase (DNA-PK) (Homo sapiens, UniProt P78527); experiment: kinobeads assay, DNA-PK
T1 construct: endogenous in cells; host or cells: Jurkat, clone E6-1 (ATCC TIB-152) cell lysate
How it was run: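 Competitive binding in Jurkat cell lysate (5 mg/mL protein) against beads carrying an immobilized phenylmorpholin-chromen ligand, in DP buffer pH 7.4 with NP40, DTT and NaF. Bead-bound kinases were eluted and quantified by antibody dot blot with infrared detection, and IC50 was taken from dose-response curves of a 1:3 dilution series.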

PI3Kalpha (PI3Ka) = target: T2, PI3Kalpha (PI3Ka) (Homo sapiens, UniProt P42336); experiment: kinobeads assay, PI3Kalpha
T2 construct: endogenous in cells; host or cells: cell lysate
T2 sequence (P42336 whole entry): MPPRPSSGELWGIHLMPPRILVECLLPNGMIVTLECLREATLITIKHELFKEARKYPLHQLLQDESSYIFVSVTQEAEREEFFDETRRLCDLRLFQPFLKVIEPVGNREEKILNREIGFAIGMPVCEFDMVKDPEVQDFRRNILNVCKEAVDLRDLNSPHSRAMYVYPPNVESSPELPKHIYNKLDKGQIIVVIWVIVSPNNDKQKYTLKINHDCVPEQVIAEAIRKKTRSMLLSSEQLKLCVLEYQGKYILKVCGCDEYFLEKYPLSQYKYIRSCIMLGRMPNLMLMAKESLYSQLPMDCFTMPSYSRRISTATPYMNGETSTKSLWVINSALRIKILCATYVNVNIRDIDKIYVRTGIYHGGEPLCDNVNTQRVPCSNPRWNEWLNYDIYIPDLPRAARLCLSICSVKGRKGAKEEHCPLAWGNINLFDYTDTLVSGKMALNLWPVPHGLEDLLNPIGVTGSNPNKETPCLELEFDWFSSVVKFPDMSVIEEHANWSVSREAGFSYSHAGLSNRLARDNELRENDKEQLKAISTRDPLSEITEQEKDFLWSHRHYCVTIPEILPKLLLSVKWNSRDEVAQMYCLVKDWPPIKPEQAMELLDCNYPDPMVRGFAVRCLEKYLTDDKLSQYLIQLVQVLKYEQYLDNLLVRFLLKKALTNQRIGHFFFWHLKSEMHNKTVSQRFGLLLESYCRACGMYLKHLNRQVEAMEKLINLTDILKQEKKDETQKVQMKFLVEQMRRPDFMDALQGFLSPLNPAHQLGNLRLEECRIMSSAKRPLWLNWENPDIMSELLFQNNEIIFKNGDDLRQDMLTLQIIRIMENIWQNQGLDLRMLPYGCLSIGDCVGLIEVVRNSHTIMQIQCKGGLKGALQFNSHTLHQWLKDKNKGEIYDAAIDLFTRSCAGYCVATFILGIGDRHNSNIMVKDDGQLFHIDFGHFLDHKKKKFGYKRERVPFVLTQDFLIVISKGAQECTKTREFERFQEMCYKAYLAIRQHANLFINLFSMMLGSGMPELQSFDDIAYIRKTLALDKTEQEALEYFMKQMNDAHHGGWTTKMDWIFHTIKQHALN
T2 sequence (P27986 whole entry partner): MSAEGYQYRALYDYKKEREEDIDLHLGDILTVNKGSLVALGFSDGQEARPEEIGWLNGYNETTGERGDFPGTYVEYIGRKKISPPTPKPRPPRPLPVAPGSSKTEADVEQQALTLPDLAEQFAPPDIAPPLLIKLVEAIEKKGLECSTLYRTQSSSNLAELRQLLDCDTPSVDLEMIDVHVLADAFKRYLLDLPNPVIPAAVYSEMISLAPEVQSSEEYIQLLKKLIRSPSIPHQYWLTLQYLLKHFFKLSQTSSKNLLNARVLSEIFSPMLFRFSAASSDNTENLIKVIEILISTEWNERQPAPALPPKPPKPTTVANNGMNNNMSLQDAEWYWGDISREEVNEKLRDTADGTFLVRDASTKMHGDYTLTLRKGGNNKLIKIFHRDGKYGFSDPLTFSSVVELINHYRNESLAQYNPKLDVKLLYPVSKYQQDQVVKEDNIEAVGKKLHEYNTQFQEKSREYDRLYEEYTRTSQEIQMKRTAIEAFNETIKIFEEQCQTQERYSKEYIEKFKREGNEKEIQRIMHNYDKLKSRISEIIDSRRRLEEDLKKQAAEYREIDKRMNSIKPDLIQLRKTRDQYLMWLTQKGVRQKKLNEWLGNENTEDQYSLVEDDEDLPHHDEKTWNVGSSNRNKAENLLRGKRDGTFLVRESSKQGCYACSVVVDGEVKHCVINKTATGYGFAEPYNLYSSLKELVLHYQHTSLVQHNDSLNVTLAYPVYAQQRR
How it was run: (§1)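 IC50 values derive from per-kinase dose-response curves in a lysate-based competition binding format. Kinases retained on phenylmorpholin-chromen beads in the presence of compound were eluted and detected by multiplexed immunodetection.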

PI3 Kbeta (PI3 Kb) = target: T3, PI3 Kbeta (PI3 Kb) (Homo sapiens, UniProt P42338); experiment: kinobeads assay, PI3Kbeta
T3 construct: endogenous in cells; host or cells: cell lysate
T3 sequence (P42338 whole entry): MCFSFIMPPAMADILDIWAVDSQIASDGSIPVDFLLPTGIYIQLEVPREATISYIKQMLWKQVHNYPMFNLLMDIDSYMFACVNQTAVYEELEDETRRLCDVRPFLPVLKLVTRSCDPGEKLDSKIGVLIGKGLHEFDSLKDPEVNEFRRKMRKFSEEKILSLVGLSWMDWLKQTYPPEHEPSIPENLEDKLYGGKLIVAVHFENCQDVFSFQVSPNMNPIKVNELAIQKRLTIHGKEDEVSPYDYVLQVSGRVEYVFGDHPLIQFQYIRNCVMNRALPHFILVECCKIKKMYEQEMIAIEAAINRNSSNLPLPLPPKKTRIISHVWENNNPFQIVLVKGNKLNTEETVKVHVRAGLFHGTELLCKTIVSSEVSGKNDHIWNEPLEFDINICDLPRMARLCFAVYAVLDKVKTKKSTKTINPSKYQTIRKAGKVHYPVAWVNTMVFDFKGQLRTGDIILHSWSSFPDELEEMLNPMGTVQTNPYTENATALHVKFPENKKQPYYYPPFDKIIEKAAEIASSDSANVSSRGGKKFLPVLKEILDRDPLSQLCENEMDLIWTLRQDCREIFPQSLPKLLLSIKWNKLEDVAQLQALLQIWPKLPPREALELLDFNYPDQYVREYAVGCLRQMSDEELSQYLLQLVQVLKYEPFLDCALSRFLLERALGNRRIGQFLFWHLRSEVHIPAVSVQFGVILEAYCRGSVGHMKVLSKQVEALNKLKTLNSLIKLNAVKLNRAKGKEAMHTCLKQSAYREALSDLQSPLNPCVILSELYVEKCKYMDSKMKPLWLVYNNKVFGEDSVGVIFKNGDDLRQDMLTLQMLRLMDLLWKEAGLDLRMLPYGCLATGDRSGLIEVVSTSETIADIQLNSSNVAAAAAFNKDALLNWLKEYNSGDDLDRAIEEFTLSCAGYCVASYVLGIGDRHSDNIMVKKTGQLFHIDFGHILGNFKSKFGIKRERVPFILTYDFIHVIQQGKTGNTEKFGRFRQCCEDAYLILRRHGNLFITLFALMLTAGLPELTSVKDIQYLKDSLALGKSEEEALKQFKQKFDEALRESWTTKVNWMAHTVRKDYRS
T3 sequence (P27986 whole entry partner): as the sequence (P27986 whole entry partner) above
How it was run: as §1

PI3 Kgamma (PI3 Kg) = target: T4, PI3 Kgamma (PI3 Kg) (Homo sapiens, UniProt P48736); experiment: kinobeads assay, PI3Kgamma
T4 construct: endogenous in cells; host or cells: cell lysate
T4 sequence (P48736 whole entry): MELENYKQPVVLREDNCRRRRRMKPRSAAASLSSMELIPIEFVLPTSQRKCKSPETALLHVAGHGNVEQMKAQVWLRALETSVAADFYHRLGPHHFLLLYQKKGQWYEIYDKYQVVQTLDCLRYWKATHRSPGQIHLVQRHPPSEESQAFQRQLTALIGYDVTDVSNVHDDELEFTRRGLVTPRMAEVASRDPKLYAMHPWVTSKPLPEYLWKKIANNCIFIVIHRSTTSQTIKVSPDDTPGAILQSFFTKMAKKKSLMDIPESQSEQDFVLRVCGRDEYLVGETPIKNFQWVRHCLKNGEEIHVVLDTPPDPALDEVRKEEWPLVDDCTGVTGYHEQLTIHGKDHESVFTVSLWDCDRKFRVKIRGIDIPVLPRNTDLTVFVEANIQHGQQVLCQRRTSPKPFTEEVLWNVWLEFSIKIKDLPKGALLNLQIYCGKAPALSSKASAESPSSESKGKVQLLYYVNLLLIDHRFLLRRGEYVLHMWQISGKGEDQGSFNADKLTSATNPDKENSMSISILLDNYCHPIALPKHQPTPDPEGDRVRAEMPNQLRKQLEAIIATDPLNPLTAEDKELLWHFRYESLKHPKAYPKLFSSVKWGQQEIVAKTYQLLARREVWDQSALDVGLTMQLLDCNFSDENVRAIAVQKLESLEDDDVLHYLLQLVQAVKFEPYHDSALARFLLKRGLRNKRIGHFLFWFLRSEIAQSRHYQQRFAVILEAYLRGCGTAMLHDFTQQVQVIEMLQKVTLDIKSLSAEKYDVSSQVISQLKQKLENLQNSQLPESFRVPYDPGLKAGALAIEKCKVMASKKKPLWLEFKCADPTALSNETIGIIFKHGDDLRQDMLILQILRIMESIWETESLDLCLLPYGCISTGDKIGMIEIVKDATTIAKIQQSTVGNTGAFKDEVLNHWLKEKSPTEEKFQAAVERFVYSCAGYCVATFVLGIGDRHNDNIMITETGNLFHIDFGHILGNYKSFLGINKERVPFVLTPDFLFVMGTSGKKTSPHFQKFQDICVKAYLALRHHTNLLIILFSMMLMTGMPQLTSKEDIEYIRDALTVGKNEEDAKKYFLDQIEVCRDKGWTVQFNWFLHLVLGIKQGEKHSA
How it was run: as §1

[2] = kinobeads assay, Table 4, read-out: Inhibition values (IC50) DNA-PK
[3] = kinobeads assay, Table 6, read-out: Inhibition values (IC50) DNAPK
[4] = kinobeads assay, Table 6, read-out: Inhibition values (IC50) PI3Kb
[5] = kinobeads assay, Table 6, read-out: Inhibition values (IC50) PI3Kg
[6] = Further Kinobeads Data, read-out: DNAPK
[7] = Further Kinobeads Data, read-out: PI3Ka
[8] = Further Kinobeads Data, read-out: PI3Kb
[9] = Further Kinobeads Data, read-out: PI3Kg

| SMILES | IC50 [1, 2] | IC50 [1, 3] | IC50 (PI3Kalpha (PI3Ka); kinobeads assay, Table 6, read-out: Inhibition values (IC50) PI3Ka) | IC50 (PI3 Kbeta (PI3 Kb); [4]) | IC50 (PI3 Kgamma (PI3 Kg); [5]) | IC50 [1, 6] | IC50 (PI3Kalpha (PI3Ka); [7]) | IC50 (PI3 Kbeta (PI3 Kb); [8]) | IC50 (PI3 Kgamma (PI3 Kg); [9]) | Inhibition values (IC50) PI3Ka (PI3Kalpha (PI3Ka); kinobeads assay, Table 6) | PI3Ka (PI3Kalpha (PI3Ka); Further Kinobeads Data) |
| --- | --- | --- | --- | --- | --- | --- | --- | --- | --- | --- | --- |
| CCNC(=O)Nc1ccc(-c2nc3c(c(N4CCOC[C@@H]4C)n2)CN(C(=O)C2CC2)C3)cc1 [Example 23, (S)-1-(4-(6-(cyclopropanecarbonyl)-4-(3-methylmorpholino)-6,7-dihydro-5H-pyrrolo[3,4-d]pyrimidin-2-yl)phenyl)-3-ethylurea] | > 10 µM | > 10 µM | 1 to 10 µM | > 10 µM | > 10 µM | – | – | – | – | – | – |
| CC(C)N1Cc2nc(-c3ccc(NC(=O)NC4CC4)cc3F)nc(N3CCOC[C@@H]3C)c2C1 [Example 172, (S)-1-cyclopropyl-3-(3-fluoro-4-(6-isopropyl-4-(3-methylmorpholino)-6,7-dihydro-5H-pyrrolo[3,4-d]pyrimidin-2-yl)phenyl)urea] | – | – | – | – | – | 1 to 10 µM | 1 to 10 µM | > 10 µM | 1 to 10 µM | – | – |
| C[C@H]1COCCN1c1nc(-c2ccc(NC(=O)NC3CC3)cc2)nc2c1CN(C(=O)C(C)(C)C)C2 [Example 45, (S)-1-cyclopropyl-3-(4-(4-(3-methylmorpholino)-6-pivaloyl-6,7-dihydro-5H-pyrrolo[3,4-d]pyrimidin-2-yl)phenyl)urea] | > 10 µM | > 10 µM | – | > 10 µM | > 10 µM | – | – | – | – | D (D >10 μM) | – |
| C[C@H]1COCCN1c1nc(-c2ccc(NC(=O)NC3CC3)cc2F)nc2c1CN(S(C)(=O)=O)C2 [Example 177, (S)-1-cyclopropyl-3-(3-fluoro-4-(4-(3-methylmorpholino)-6-(methylsulfonyl)-6,7-dihydro-5H-pyrrolo[3,4-d]pyrimidin-2-yl)phenyl)urea] | – | – | – | – | – | > 10 µM | – | > 10 µM | > 10 µM | – | D (D >10 μM) |
| CC(C)C(=O)N1Cc2nc(-c3ccc(NC(=O)NC4CC4)cc3F)nc(N3CCOC[C@@H]3C)c2C1 [Example 174, (S)-1-cyclopropyl-3-(3-fluoro-4-(6-isobutyryl-4-(3-methylmorpholino)-6,7-dihydro-5H-pyrrolo[3,4-d]pyrimidin-2-yl)phenyl)urea] | – | – | – | – | – | > 10 µM | – | > 10 µM | > 10 µM | – | D (D >10 μM) |
| CCNC(=O)Nc1cc(F)c(-c2nc3c(c(N4CCOC[C@@H]4C)n2)CN(C(=O)OCC)C3)cc1F [Example 141, (S)-ethyl 2-(4-(3-ethylureido)-2,5-difluorophenyl)-4-(3-methylmorpholino)-5H-pyrrolo[3,4-d]pyrimidine-6(7H)-carboxylate] | – | – | – | – | – | > 10 µM | – | > 10 µM | > 10 µM | – | D (D >10 μM) |
| CCNC(=O)Nc1ccc(-c2nc3c(c(N4CCOC[C@@H]4C)n2)CN(C(=O)c2ccc(F)cc2)C3)cc1 [Example 19, (S)-1-ethyl-3-(4-(6-(4-fluorobenzoyl)-4-(3-methylmorpholino)-6,7-dihydro-5H-pyrrolo[3,4-d]pyrimidin-2-yl)phenyl)urea] | > 10 µM | > 10 µM | – | > 10 µM | > 10 µM | – | – | – | – | D (D >10 μM) | – |
| CCNC(=O)Nc1ccc(-c2nc3c(c(N4CCOC[C@@H]4C)n2)CN(C(=O)OC(C)(C)C)C3)c(F)c1 [Example 153, (S)-tert-butyl 2-(4-(3-ethylureido)-2-fluorophenyl)-4-(3-methylmorpholino)-5H-pyrrolo[3,4-d]pyrimidine-6-(7H)-carboxylate] | – | – | – | – | – | > 10 µM | – | > 10 µM | > 10 µM | – | D (D >10 μM) |
| COC(=O)N1Cc2nc(-c3ccc(NC(=O)NCCF)cc3F)nc(N3CCOC[C@@H]3C)c2C1 [Example 183, (S)-methyl 2-(2-fluoro-4-(3-(2-fluoroethyl)ureido)phenyl)-4-(3-methylmorpholino)-5H-pyrrolo[3,4-d]pyrimidine-6(7H)-carboxylate] | – | – | – | – | – | > 10 µM | – | > 10 µM | > 10 µM | – | D (D >10 μM) |
| C[C@H]1COCCN1c1nc(-c2ccc(NC(=O)NC3CC3)cc2)nc2c1CCN(CC(C)(C)C)C2 [Example 41, (S)-1-cyclopropyl-3-(4-(4-(3-methylmorpholino)-7-neopentyl-5,6,7,8-tetrahydropyrido[3,4-d]pyrimidin-2-yl)phenyl)urea] | > 10 µM | > 10 µM | – | > 10 µM | > 10 µM | – | – | – | – | D (D >10 μM) | – |
| CCNC(=O)Nc1ccc(-c2nc3c(c(N4CCOCC4)n2)CN(C(=O)OC)C3)c(F)c1 [Example 162, methyl 2-(4-(3-ethylureido)-2-fluorophenyl)-4-morpholino-5H-pyrrolo[3,4-d]pyrimidine-6(7H)-carboxylate] | – | – | – | – | – | > 10 µM | 1 to 10 µM | 1 to 10 µM | > 10 µM | – | – |
| CCOC(=O)N1Cc2nc(-c3ccc(NC(=O)NC4CC4)cc3F)nc(N3CCOCC3)c2C1 [Example 156, Ethyl 2-(4-(3-cyclopropylureido)-2-fluorophenyl)-4-morpholino-5H-pyrrolo[3,4-d]pyrimidine-6(7H)-carboxylate] | – | – | – | – | – | > 10 µM | – | > 10 µM | > 10 µM | – | D (D >10 μM) |
| CCOC(=O)N1Cc2nc(-c3ccc(NC(=O)NCCO)cc3F)nc(N3CCOC[C@@H]3C)c2C1 [Example 167, (S)-Ethyl 2-(2-fluoro-4-(3-(2-hydroxyethyl)ureido)phenyl)-4-(3-methylmorpholino)-5H-pyrrolo[3,4-d]pyrimidine-6(7H)-carboxylate] | – | – | – | – | – | > 10 µM | – | 1 to 10 µM | > 10 µM | – | D (D >10 μM) |
| C[C@H]1COCCN1c1nc(-c2ccc(NC(=O)NC3CC3)cc2F)nc2c1CCN(C(=O)N(C)C)C2 [Example 165, (S)-2-(4-(3-cyclopropylureido)-2-fluorophenyl)-N,N-dimethyl-4-(3-methylmorpholino)-5,6-dihydropyrido[3,4-d]pyrimidine-7(8H)-carboxamide] | – | – | – | – | – | > 10 µM | – | > 10 µM | > 10 µM | – | D (D >10 μM) |
| COC(=O)N1Cc2nc(-c3ccc(NC(=O)NC4CC4)cc3F)nc(N3CCOC[C@H]3C)c2C1 [Example 180, (R)-methyl 2-(4-(3-cyclopropylureido)-2-fluorophenyl)-4-(3-methylmorpholino)-5H-pyrrolo[3,4-d]pyrimidine-6(7H)-carboxylate] | – | – | – | – | – | 1 to 10 µM | – | > 10 µM | > 10 µM | – | D (D >10 μM) |
| CCNC(=O)Nc1ccc(-c2nc3c(c(N4CCOC[C@@H]4C)n2)CCN(C(=O)c2ccc(F)cc2)C3)cc1 [Example 24, (S)-1-ethyl-3-(4-(7-(4-fluorobenzoyl)-4-(3-methylmorpholino)-5,6,7,8-tetrahydropyrido[3,4-d]pyrimidin-2-yl)phenyl)urea] | > 10 µM | > 10 µM | – | > 10 µM | > 10 µM | – | – | – | – | D (D >10 μM) | – |
| CCNC(=O)Nc1ccc(-c2nc3c(c(N4CCOCC4)n2)CN(C)C3)c(F)c1 [Example 154, 1-ethyl-3-(3-fluoro-4-(6-methyl-4-morpholino-6,7-dihydro-5H-pyrrolo[3,4-d]pyrimidin-2-yl)phenyl)urea] | – | – | – | – | – | > 10 µM | – | > 10 µM | > 10 µM | – | D (D >10 μM) |
| C[C@@H]1COCCN1c1nc(-c2ccc(NC(=O)NC3CC3)cc2F)nc2c1CN(C(=O)C1CC1)C2 [Example 188, (R)-1-(4-(6-(cyclopropanecarbonyl)-4-(3-methylmorpholino)-6,7-dihydro-5H-pyrrolo[3,4-d]pyrimidin-2-yl)-3-fluorophenyl)-3-cyclopropylurea] | – | – | – | – | – | > 10 µM | 1 to 10 µM | > 10 µM | > 10 µM | – | – |
| CC(C)N1Cc2nc(-c3ccc(NC(=O)NCCO)cc3F)nc(N3CCOC[C@@H]3C)c2C1 [Example 187, (S)-1-(3-fluoro-4-(6-isopropyl-4-(3-methylmorpholino)-6,7-dihydro-5H-pyrrolo[3,4-d]pyrimidin-2-yl)phenyl)-3-(2-hydroxyethyl)urea] | – | – | – | – | – | > 10 µM | – | > 10 µM | > 10 µM | – | D (D >10 μM) |
| CCNC(=O)Nc1ccc(-c2nc3c(c(N4CCOC[C@@H]4C)n2)CCN(C(=O)C2CC2)C3)cc1 [Example 56, (S)-1-(4-(7-(cyclopropanecarbonyl)-4-(3-methylmorpholino)-5,6,7,8-tetrahydropyrido[3,4-d]pyrimidin-2-yl)phenyl)-3-ethylurea] | > 10 µM | > 10 µM | – | > 10 µM | > 10 µM | – | – | – | – | D (D >10 μM) | – |
| C[C@H]1COCCN1c1nc(-c2ccc(NC(=O)NC3CC3)cc2F)nc2c1CN(C)C2 [Example 147, (S)-1-cyclopropyl-3-(3-fluoro-4-(6-methyl-4-(3-methylmorpholino)-6,7-dihydro-5H-pyrrolo[3,4-d]pyrimidin-2-yl)phenyl)urea] | – | – | – | – | – | > 10 µM | – | > 10 µM | > 10 µM | – | D (D >10 μM) |
| COC(=O)N1Cc2nc(-c3ccc(NC(=O)NC4CC4)cc3F)nc(N3CCOC[C@@H]3C)c2C1 [Example 146, (S)-methyl 2-(4-(3-cyclopropylureido)-2-fluorophenyl)-4-(3-methylmorpholino)-5H-pyrrolo[3,4-d]pyrimidine-6(7H)-carboxylate] | – | – | – | – | – | > 10 µM | – | > 10 µM | > 10 µM | – | D (D >10 μM) |
